Measured values reported in patent publication US20100298141A1, “SUBSTITUTED PYRIDINE N-OXIDE HERBICIDES” (E. I. DU PONT DE NEMOURS AND COMPANY, priority 2007, published 2010).

Experiments:
[1] = tested on: eastern black nightshade; experiment: Test C pre-/postemergence test; assay type: in vivo, Solanum ptycanthum
How it was run: (§1)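 Compounds in a non-phytotoxic solvent with surfactant applied preemergence to seeded pots and, at the same time, postemergence to plants 2–18 cm tall (1- to 4-leaf stage). Paddy tests: pots flooded to 3 cm, compound applied into the water, depth held throughout.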

[2] = tested on: velvetleaf; experiment: Test A pre-/postemergence greenhouse test; assay type: in vivo, Abutilon theophrasti; settings: for Plant response rating, Velvetleaf: 0 to 100 scale where 0 is no effect and 100 is complete control; for Velvetleaf plant response rating: 0 to 100 scale
How it was run: (§2)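 Seeds sown in a loam soil–sand blend got a preemergence directed soil spray of compound in a non-phytotoxic solvent mixture containing surfactant. Postemergence sprays of the same formulation went at the same time onto plants 2–10 cm tall at the one- to two-leaf stage. Injury was scored visually against untreated controls after about ten days in the greenhouse.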

[3] = tested on: giant foxtail; experiment: Test C pre-/postemergence test; assay type: in vivo, Setaria faberii
How it was run: as §1

[4] = tested on: johnsongrass; experiment: Test C pre-/postemergence test; assay type: in vivo, Sorghum halepense
How it was run: as §1

[5] = tested on: velvetleaf; experiment: Test C pre-/postemergence test; assay type: in vivo, Abutilon theophrasti
How it was run: as §1

[6] = tested on: wild oat; experiment: Test C pre-/postemergence test; assay type: in vivo, Avena fatua
How it was run: as §1

[7] = tested on: corn; experiment: Test A pre-/postemergence greenhouse test; assay type: in vivo, Zea mays; settings: for Plant response rating, Corn: 0 to 100 scale where 0 is no effect and 100 is complete control; for Corn plant response rating: 0 to 100 scale
How it was run: as §2

[8] = tested on: common ragweed; experiment: Test C pre-/postemergence test; assay type: in vivo, Ambrosia elation
How it was run: as §1

[9] = tested on: Goosegrass; experiment: Test C pre-/postemergence test; assay type: in vivo, Eleusin indica
How it was run: as §1

[10] = tested on: duck salad; experiment: Test C flooded paddy test; assay type: in vivo, Heteranthera limosa; settings: Flood
How it was run: (§3)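 Ratings were visual and made relative to untreated controls after 13 to 15 greenhouse days.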

[11] = tested on: barnyardgrass; experiment: Test C flooded paddy test; assay type: in vivo, Echinochloa crus-galli; settings: Flood
How it was run: as §3

[12] = tested on: redroot pigweed; experiment: Test A pre-/postemergence greenhouse test; assay type: in vivo, Amaranthus retroflexus; settings: for Plant response rating, Pigweed: 0 to 100 scale where 0 is no effect and 100 is complete control; for Pigweed plant response rating: 0 to 100 scale
How it was run: as §2

[13] = tested on: Surinam grass; experiment: Test C pre-/postemergence test; assay type: in vivo, Brachiaria decumbens
How it was run: as §1

[14] = tested on: lambsquarters; experiment: Test C pre-/postemergence test; assay type: in vivo, Chenopodium album
How it was run: as §1

[15] = tested on: bermudagrass; experiment: Test C pre-/postemergence test; assay type: in vivo, Cynodon dactylon
How it was run: as §1

[16] = tested on: wheat; experiment: Test A pre-/postemergence greenhouse test; assay type: in vivo, Triticum aestivum; settings: for Plant response rating, Wheat: 0 to 100 scale where 0 is no effect and 100 is complete control; for Wheat plant response rating: 0 to 100 scale
How it was run: as §2

[17] = tested on: rice; experiment: Test C flooded paddy test; assay type: in vivo, Oryza sativa; settings: Flood
How it was run: as §3

[18] = tested on: giant foxtail; experiment: Test A pre-/postemergence greenhouse test; assay type: in vivo, Setaria faberi; settings: for Plant response rating, Foxtail, Giant: 0 to 100 scale where 0 is no effect and 100 is complete control; for Foxtail, Giant plant response rating: 0 to 100 scale
How it was run: as §2

[19] = 62 g ai/ha, Preemergence, scale 0 to 100
[20] = 125 g ai/ha, preemergence, scale 0 (no effect) to 100 (complete control)
[21] = Preemergence, 31 g ai/ha, scale 0 to 100 (0 no effect, 100 complete control)
[22] = preemergence, 250 g ai/ha, scale 0 (no effect) to 100 (complete control)
[23] = Postemergence, 500 g ai/ha, 0 is no effect, 100 is complete control
[24] = Preemergence, 125 g ai/ha, 0 no effect, 100 complete control
[25] = Postemergence, 62 g ai/ha, scale 0 to 100, 0 no effect, 100 complete control
[26] = Postemergence, 125 g ai/ha, scale 0 to 100, 0 no effect, 100 complete control
[27] = Postemergence, 250 g ai/ha, scale 0 to 100, 0 no effect, 100 complete control
[28] = 62 g ai/ha, scale 0 to 100 (0 no effect, 100 complete control)
[29] = 250 g ai/ha, scale 0 to 100, 0 no effect, 100 complete control, 13 to 15 days

Compound: Cn1nc(C(F)(F)F)c(C[S+]([O-])c2ccc(F)c[n+]2[O-])c1OC(F)F (stereo not drawn) [Compound 58]
- Nightshade plant response rating [1, 19]: 100
- Nightshade plant response rating [1, 20]: 100
- Plant response rating, Nightshade [1, 21]: 100
- Nightshade plant response rating [1, 22]: 100
- Plant response rating, Velvetleaf ([2]; Postemergence, 125 g ai/ha): 60
- Velvetleaf plant response rating [2, 23]: 80
- Velvetleaf plant response rating [2, 24]: 60
- Plant response rating, Velvetleaf ([2]; Preemergence, 500 g ai/ha): 100
- Foxtail, Giant plant response rating [3, 19]: 100
- Foxtail, Giant plant response rating [3, 20]: 100
- Plant response rating (0 to 100), Foxtail, Giant ([3]; Postemergence, 31 g ai/ha): 0
- Plant response rating, Foxtail, Giant [3, 25]: 10
- Plant response rating, Foxtail, Giant [3, 26]: 40
- Plant response rating, Foxtail, Giant [3, 27]: 60
- Plant response rating, Foxtail, Giant [3, 21]: 40
- Foxtail, Giant plant response rating [3, 22]: 100
- Johnsongrass plant response rating [4, 19]: 95
- Johnsongrass plant response rating [4, 20]: 100
- Plant response rating (0 to 100), Johnsongrass ([4]; Postemergence, 31 g ai/ha): 0
- Plant response rating, Johnsongrass [4, 25]: 0
- Plant response rating, Johnsongrass [4, 26]: 10
- Plant response rating, Johnsongrass [4, 27]: 60
- Plant response rating, Johnsongrass [4, 21]: 85
- Johnsongrass plant response rating [4, 22]: 100
- Velvetleaf plant response rating [5, 19]: 75
- Velvetleaf plant response rating [5, 20]: 100
- Plant response rating (0 to 100), Velvetleaf ([5]; Postemergence, 31 g ai/ha): 0
- Plant response rating (0 to 100), Velvetleaf ([5]; Postemergence, 62 g ai/ha): 0
- Plant response rating, Velvetleaf [5, 26]: 5
- Plant response rating, Velvetleaf [5, 27]: 5
- Plant response rating, Velvetleaf [5, 21]: 5
- Velvetleaf plant response rating [5, 22]: 100
- Oat, Wild plant response rating [6, 19]: 45
- Oat, Wild plant response rating [6, 20]: 80
- Plant response rating (0 to 100), Oat, Wild ([6]; Postemergence, 31 g ai/ha): 0
- Plant response rating, Oat, Wild [6, 25]: 0
- Plant response rating, Oat, Wild [6, 26]: 0
- Plant response rating, Oat, Wild [6, 27]: 5
- Plant response rating, Oat, Wild [6, 21]: 20
- Oat, Wild plant response rating [6, 22]: 80
- Plant response rating, Corn ([7]; Postemergence, 125 g ai/ha): 50
- Corn plant response rating [7, 23]: 70
- Corn plant response rating [7, 24]: 40
- Plant response rating, Corn ([7]; Preemergence, 500 g ai/ha): 90
- Ragweed plant response rating [8, 19]: 30
- Ragweed plant response rating [8, 20]: 55
- Plant response rating (0 to 100), Ragweed ([8]; Postemergence, 31 g ai/ha): 0
- Plant response rating (0 to 100), Ragweed ([8]; Postemergence, 62 g ai/ha): 0
- Plant response rating, Ragweed [8, 26]: 0
- Plant response rating, Ragweed [8, 27]: 30
- Plant response rating, Ragweed [8, 21]: 30
- Ragweed plant response rating [8, 22]: 100
- Goosegrass plant response rating [9, 19]: 90
- Goosegrass plant response rating [9, 20]: 100
- Plant response rating (0 to 100), Goosegrass ([9]; Postemergence, 31 g ai/ha): 0
- Plant response rating, Goosegrass [9, 25]: 0
- Plant response rating, Goosegrass [9, 26]: 5
- Plant response rating, Goosegrass [9, 27]: 60
- Plant response rating, Goosegrass [9, 21]: 80
- Goosegrass plant response rating [9, 22]: 100
- Plant response rating, Ducksalad [10, 28]: 70
- Plant response rating, Ducksalad [10, 29]: 80
- Plant response rating, Barnyardgrass [11, 28]: 65
- Plant response rating, Barnyardgrass [11, 29]: 85
- Plant response rating, Pigweed ([12]; Postemergence, 125 g ai/ha): 70
- Pigweed plant response rating [12, 23]: 90
- Pigweed plant response rating [12, 24]: 80
- Plant response rating, Pigweed ([12]; Preemergence, 500 g ai/ha): 100
- Surinam Grass plant response rating [13, 19]: 80
- Surinam Grass plant response rating [13, 20]: 85
- Plant response rating (0 to 100), Surinam Grass ([13]; Postemergence, 31 g ai/ha): 0
- Plant response rating (0 to 100), Surinam Grass ([13]; Postemergence, 62 g ai/ha): 0
- Plant response rating, Surinam Grass [13, 26]: 10
- Plant response rating, Surinam Grass [13, 27]: 45
- Plant response rating, Surinam Grass [13, 21]: 70
- Surinam Grass plant response rating [13, 22]: 100
- Lambsquarters plant response rating [14, 19]: 100
- Lambsquarters plant response rating [14, 20]: 100
- Plant response rating (0 to 100), Lambsquarters ([14]; Postemergence, 31 g ai/ha): 0
- Plant response rating, Lambsquarters [14, 25]: 0
- Plant response rating, Lambsquarters [14, 26]: 0
- Plant response rating, Lambsquarters [14, 27]: 30
- Plant response rating, Lambsquarters [14, 21]: 70
- Lambsquarters plant response rating [14, 22]: 100
- Bermudagrass plant response rating ([15]; 62 g ai/ha, Preemergence, scale 0 to 100 (0 no effect, 100 complete control)): 100
- Bermudagrass plant response rating [15, 20]: 100
- Plant response rating (0 to 100), Bermudagrass ([15]; Postemergence, 31 g ai/ha): 0
- Plant response rating, Bermudagrass [15, 25]: 0
- Plant response rating, Bermudagrass [15, 26]: 20
- Plant response rating, Bermudagrass [15, 27]: 40
- Plant response rating, Bermudagrass [15, 21]: 100
- Bermudagrass plant response rating [15, 22]: 100
- Plant response rating, Wheat ([16]; Postemergence, 125 g ai/ha): 60
- Wheat plant response rating [16, 23]: 70
- Wheat plant response rating [16, 24]: 60
- Plant response rating, Wheat ([16]; Preemergence, 500 g ai/ha): 100
- Plant response rating, Rice [17, 28]: 40
- Plant response rating, Rice [17, 29]: 65
- Plant response rating, Foxtail, Giant ([18]; Postemergence, 125 g ai/ha): 90
- Foxtail, Giant plant response rating [18, 23]: 90
- Foxtail, Giant plant response rating [18, 24]: 100
- Plant response rating, Foxtail, Giant ([18]; Preemergence, 500 g ai/ha): 100
